21 compounds from US20250230155A1 (Vanderbilt University, priority 2021, published 2025) can be followed below.

Some results are limits rather than exact numbers.

The assay addresses T1, human mAChR M4 (Homo sapiens, UniProt P08173).
T1 construct: expressed in transfected cells
T1 sequence (P08173 1-479): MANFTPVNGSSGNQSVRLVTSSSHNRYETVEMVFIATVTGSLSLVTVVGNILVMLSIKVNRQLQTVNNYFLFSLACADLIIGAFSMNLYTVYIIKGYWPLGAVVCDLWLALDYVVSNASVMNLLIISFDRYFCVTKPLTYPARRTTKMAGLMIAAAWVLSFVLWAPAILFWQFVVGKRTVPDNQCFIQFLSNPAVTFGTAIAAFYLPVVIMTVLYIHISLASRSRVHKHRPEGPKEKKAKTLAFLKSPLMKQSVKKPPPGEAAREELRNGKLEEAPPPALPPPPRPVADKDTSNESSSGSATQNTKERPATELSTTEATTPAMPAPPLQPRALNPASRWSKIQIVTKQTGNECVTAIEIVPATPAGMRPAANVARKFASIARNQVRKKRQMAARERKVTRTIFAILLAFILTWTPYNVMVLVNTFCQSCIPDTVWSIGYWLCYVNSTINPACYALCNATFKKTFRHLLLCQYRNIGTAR
The experiment in a line: mAChR M4 cell-based functional assay (calcium mobilization, CHO-K1 hM4-Gqi5 cells). The note with it: for Emax at 30 µM: CHO-K1, % ACh maximum at 30 μM, human M4; for EC50: positive allosteric modulator activity, increase in the EC20 acetylcholine response, CHO-K1 hM4-Gqi5 cells, read-out: Human M4 EC50. The essentials:
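Fluorescent calcium read-out (Fluo-4 AM, FDSS, 1 Hz) in hM4-Gqi5 CHO-K1 cells, 11-point 1:3 compound series. Agonism scored on compound addition, PAM activity as increase of the 144 s EC20 acetylcholine response, antagonism as decrease of the 230 s EC80 response; four-parameter logistic fits give EC50 and Emax.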

In the case of `Cc1cc(C(=O)NCc2ccc3c(c2)CC(=O)N3)cnc1N1CCc2ncccc2C1` [compound 154, 6-(7,8-dihydro-5H-1,6-naphthyridin-6-yl)-5-methyl-N-[(2-oxoindolin-5-yl)methyl]pyridine-3-carboxamide], the maximum response (Emax) at 30 µM turned out to be 47% and the EC50 was 6560 nM.
In the same order, the values of `Cc1cc(C(=O)NCc2cnc3c(c2)CCC3)cnc1N1CCc2ncccc2C1` [compound 155, N-(6,7-dihydro-5H-cyclopenta[b]pyridin-3-ylmethyl)-6-(7,8-dihydro-5H-1,6-naphthyridin-6-yl)-5-methyl-pyridine-3-carboxamide] are 63% and 3910 nM.
Take `Cc1cc(C(=O)NCc2cccc3cccnc23)cnc1N1CCc2ncccc2C1` [compound 156, 6-(7,8-dihydro-5H-1,6-naphthyridin-6-yl)-5-methyl-N-(8-quinolylmethyl)pyridine-3-carboxamide]: the Emax at 30 µM stood at 84% and the EC50 is 1150 nM.
In the same order, the values of `Cc1cc(C(=O)NCc2ccc3nccnc3c2)cnc1N1CCc2ncccc2C1` [compound 157, 6-(7,8-dihydro-5H-1,6-naphthyridin-6-yl)-5-methyl-N-(quinoxalin-6-ylmethyl)pyridine-3-carboxamide] are 57% and 3480 nM.
The like results for `Cc1cc(C(=O)NCc2ccc3c(c2)n(C)c(=O)n3C)cnc1N1CCc2ncccc2C1` [compound 158, 6-(7,8-dihydro-5H-1,6-naphthyridin-6-yl)-N-[(1,3-dimethyl-2-oxo-benzimidazol-5-yl)methyl]-5-methyl-pyridine-3-carboxamide] were, in that order, 68% and 3640 nM.
The like results for `Cc1cc(C(=O)NCc2cccc(F)c2)cnc1N1CCc2ncccc2C1` [compound 159, 6-(7,8-dihydro-5H-1,6-naphthyridin-6-yl)-N-[(3-fluorophenyl)methyl]-5-methyl-pyridine-3-carboxamide] were, in that order, 69% and 3130 nM.
For `Cc1cc(C(=O)NCC2CCOCC2)cnc1N1CCc2ncccc2C1` [compound 160, 6-(7,8-dihydro-5H-1,6-naphthyridin-6-yl)-5-methyl-N-(tetrahydropyran-4-ylmethyl)pyridine-3-carboxamide], the Emax at 30 µM came to 51% and the EC50 was no less than 10000 nM.
In the same order, the values of `Cc1cc(C(=O)NCC2CCCCO2)cnc1N1CCc2ncccc2C1` (stereo not drawn) [compound 161, 6-(7,8-dihydro-5H-1,6-naphthyridin-6-yl)-5-methyl-N-(tetrahydropyran-2-ylmethyl)pyridine-3-carboxamide] are 58% and no less than 10000 nM.
The like results for `COc1cccc2cc(CNC(=O)c3cnc(N4CCc5ncccc5C4)c(C)c3)oc12` [compound 162, 6-(7,8-dihydro-5H-1,6-naphthyridin-6-yl)-N-[(7-methoxybenzofuran-2-yl)methyl]-5-methyl-pyridine-3-carboxamide] were, in that order, 65% and 3350 nM.
The like results for `Cc1cc(C(=O)NCc2ccc[nH]2)cnc1N1CCc2ncccc2C1` [compound 163, 6-(7,8-dihydro-5H-1,6-naphthyridin-6-yl)-5-methyl-N-(1H-pyrrol-2-ylmethyl)pyridine-3-carboxamide] were, in that order, 65% and 2660 nM.
Take `Cc1cc(C(=O)NCc2ccc3c(c2)CCS3(=O)=O)cnc1N1CCc2ncccc2C1` [compound 164, 6-(7,8-dihydro-5H-1,6-naphthyridin-6-yl)-N-[(1,1-dioxo-2,3-dihydrobenzothiophen-5-yl)methyl]-5-methyl-pyridine-3-carboxamide]: the Emax at 30 µM amounted to 54% and the EC50 is no less than 10000 nM.
In the same order, the values of `Cc1cc(C#N)cnc1N1CCc2ncc(C(F)(F)F)cc2C1` [compound 165, 5-methyl-6-[3-(trifluoromethyl)-7,8-dihydro-5H-1,6-naphthyridin-6-yl]pyridine-3-carbonitrile] are 111% and 145 nM.
Take `Cc1cc(C#N)cnc1N1CCc2ncc(Nc3cccnc3F)cc2C1` [compound 166, 6-[3-[(2-fluoro-3-pyridyl)amino]-7,8-dihydro-5H-1,6-naphthyridin-6-yl]-5-methyl-pyridine-3-carbonitrile]: the EC50 was 45.1 nM. In addition, where the note is “CHO-K1”, the Emax turned out to be 106%.
Regarding `Cc1cc(C#N)cnc1N1CCc2ncc(Nc3ncccc3F)cc2C1` [compound 167, 6-[3-[(3-fluoro-2-pyridyl)amino]-7,8-dihydro-5H-1,6-naphthyridin-6-yl]-5-methyl-pyridine-3-carbonitrile], the Emax at 30 µM is 91% and the EC50 worked out at 265 nM.
The like results for `Cc1cc(C#N)cnc1N1CCc2ncc(-c3cccc(F)n3)cc2C1` [compound 168, 6-[3-(6-fluoro-2-pyridyl)-7,8-dihydro-5H-1,6-naphthyridin-6-yl]-5-methyl-pyridine-3-carbonitrile] were, in that order, 91% and 420 nM.
The like results for `Cc1c(C#N)nnc(N2CCc3ncc(Nc4ccnn4C)cc3C2)c1C` [compound 169, 4,5-dimethyl-6-[3-[(2-methylpyrazol-3-yl)amino]-7,8-dihydro-5H-1,6-naphthyridin-6-yl]pyridazine-3-carbonitrile] were, in that order, 100% and 111 nM.
The like results for `Cc1cc(C(=O)NCc2nccs2)cnc1N1CCc2ncc(-c3cn(C)nc3C)cc2C1` [compound 170, 6-[3-(1,3-dimethylpyrazol-4-yl)-7,8-dihydro-5H-1,6-naphthyridin-6-yl]-5-methyl-N-(thiazol-2-ylmethyl)pyridine-3-carboxamide] were, in that order, 103% and 110 nM.
As to `Cc1cc(C(=O)NCc2nccs2)cnc1N1CCc2ncc(-c3ccn(C)n3)cc2C1` [compound 171, 5-methyl-6-[3-(1-methylpyrazol-3-yl)-7,8-dihydro-5H-1,6-naphthyridin-6-yl]-N-(thiazol-2-ylmethyl)pyridine-3-carboxamide], the Emax at 30 µM stood at 87% and the EC50 is 265 nM.
Turning to `Cc1cc(C(=O)NCc2nccs2)cnc1N1CCc2ncc(-c3c(C)noc3C)cc2C1` [compound 172, 6-[3-(3,5-dimethylisoxazol-4-yl)-7,8-dihydro-5H-1,6-naphthyridin-6-yl]-5-methyl-N-(thiazol-2-ylmethyl)pyridine-3-carboxamide], the Emax at 30 µM turned out to be 93% and the EC50 amounted to 78.5 nM.
The like results for `Cc1cc(C(=O)NCc2nccs2)cnc1N1CCc2ncc(-c3cnn(C)c3)cc2C1` [compound 173, 5-methyl-6-[3-(1-methylpyrazol-4-yl)-7,8-dihydro-5H-1,6-naphthyridin-6-yl]-N-(thiazol-2-ylmethyl)pyridine-3-carboxamide] were, in that order, 95% and 77.3 nM.
In the same order, the values of `Cc1cc(F)ncc1-c1cnc2c(c1)CN(c1ncc(C(=O)NCc3nccs3)cc1C)CC2` [compound 174, 6-[3-(6-fluoro-4-methyl-3-pyridyl)-7,8-dihydro-5H-1,6-naphthyridin-6-yl]-5-methyl-N-(thiazol-2-ylmethyl)pyridine-3-carboxamide] are 98% and 75.8 nM.
